Source: patent publication US20240000872A1, “NOVEL BACTERIOPHAGE THAT LYSES ACINETOBACTER GENUS BACTERIA HAVING RESISTANCE TO ANTIBIOTICS” (priority 2020, published 2024)

System: Acinetobacter baumannii strains
Assay: Antibiotic susceptibility test (CLSI disk diffusion test method, read per CLSI 2016)
Format: cell-based
Set-up: antibiotic susceptibility test value / susceptibility test value (number given before S/I/R) / antibiotic susceptibility value: unit not given here
Method: (§1) Strain identification was performed using a kit such as AT 32 GN system (bioMérieux, Marcy l'Etoile, France). […] In Table 2 below, S, I, and R are the results obtained by evaluating susceptibility to the antibacterial agents, in which ‘S’ means susceptible, ‘I’ means intermediate, and ‘R’ means resistant.
as §1, with “as ATB” for “as AT”, “system (bioMédrieux,” for “system (bioMérieux,”, “Table 6” for “Table 2”
as §1, with “as ATB” for “as AT”, “Table 10” for “Table 2”, “susceptible, T” for “susceptible, ‘I’”

## ampicillin-sulbactam
Host strain YMC14/01/C29
  antibiotic susceptibility class: R
  antibiotic susceptibility test value: 32
Host strain YMC14/01/IP122
  antibiotic susceptibility class: R
  antibiotic susceptibility test value: 32
Host strain YMC14/01/L8
  antibiotic susceptibility class: R
  antibiotic susceptibility test value: 32
Host strain YMC14/01/P31
  antibiotic susceptibility class: R
  antibiotic susceptibility test value: 32
Host strain YMC14/01/P117
  antibiotic susceptibility class: R
  antibiotic susceptibility test value: 32
Host strain YMC14/01/P224
  antibiotic susceptibility class: I
  antibiotic susceptibility test value: 16
Host strain YMC14/01/P727
  antibiotic susceptibility class: R
  antibiotic susceptibility test value: 32
Host strain YMC14/01/P728
  antibiotic susceptibility class: I
  antibiotic susceptibility test value: 16
Host strain YMC14/01/R130
  antibiotic susceptibility class: I
  antibiotic susceptibility test value: 16
Host strain YMC14/01/R160
  antibiotic susceptibility class: R
  antibiotic susceptibility test value: 32
Host strain YMC14/01/R198
  antibiotic susceptibility class: R
  antibiotic susceptibility test value: 32
Host strain YMC14/01/R257
  antibiotic susceptibility class: R
  antibiotic susceptibility test value: 32
Host strain YMC14/01/R270
  antibiotic susceptibility class: R
  antibiotic susceptibility test value: 32
Host strain YMC14/01/R324
  antibiotic susceptibility class: S
  antibiotic susceptibility test value: 8
Host strain YMC14/01/R443
  antibiotic susceptibility class: R
  antibiotic susceptibility test value: 32
Host strain YMC14/01/R451
  antibiotic susceptibility class: R
  antibiotic susceptibility test value: 32
Host strain YMC14/01/R560
  antibiotic susceptibility class: R
  antibiotic susceptibility test value: 32
Host strain YMC14/01/R617
  antibiotic susceptibility class: R
  antibiotic susceptibility test value: 32
Host strain YMC14/01/R671
  antibiotic susceptibility class: R
  antibiotic susceptibility test value: 32
Host strain YMC14/01/R732
  antibiotic susceptibility class: R
  antibiotic susceptibility test value: 32
Host strain YMC14/01/R767
  antibiotic susceptibility class: I
  antibiotic susceptibility test value: 16
Host strain YMC14/01/R904
  antibiotic susceptibility class: R
  antibiotic susceptibility test value: 32
Host strain YMC14/01/R905
  antibiotic susceptibility class: R
  antibiotic susceptibility test value: 32
Host strain YMC14/01/R921
  antibiotic susceptibility class: I
  antibiotic susceptibility test value: 16
Host strain YMC14/01/R941
  antibiotic susceptibility class: R
  antibiotic susceptibility test value: 32
Host strain YMC14/01/R958
  antibiotic susceptibility class: I
  antibiotic susceptibility test value: 16
Host strain YMC14/01/R1006
  antibiotic susceptibility class: I
  antibiotic susceptibility test value: 16
Host strain YMC14/01/R1199
  antibiotic susceptibility class: I
  antibiotic susceptibility test value: 16
Host strain YMC14/01/R1659
  antibiotic susceptibility class: I
  antibiotic susceptibility test value: 16
Host strain YMC14/01/R1722
  antibiotic susceptibility class: I
  antibiotic susceptibility test value: 16
Host strain YMC14/01/R1752
  antibiotic susceptibility class: I
  antibiotic susceptibility test value: 16
Host strain YMC14/01/R2429
  antibiotic susceptibility class: I
  antibiotic susceptibility test value: 16
Host strain YMC14/01/R2572
  antibiotic susceptibility class: I
  antibiotic susceptibility test value: 16
Host strain YMC14/01/R2855
  antibiotic susceptibility class: I
  antibiotic susceptibility test value: 16
Host strain YMC14/01/R2945
  antibiotic susceptibility class: S
  antibiotic susceptibility test value: 4
Host strain YMC14/01/R3007
  antibiotic susceptibility class: I
  antibiotic susceptibility test value: 16
Host strain YMC14/01/R3129
  antibiotic susceptibility class: R
  antibiotic susceptibility test value: 32
Host strain YMC14/01/R3317
  antibiotic susceptibility class: I
  antibiotic susceptibility test value: 16
Host strain YMC14/01/R3474
  antibiotic susceptibility class: R
  antibiotic susceptibility test value: 32
Host strain YMC14/01/R3574
  antibiotic susceptibility class: I
  antibiotic susceptibility test value: 16
Host strain YMC14/01/U313
  antibiotic susceptibility class: S
  antibiotic susceptibility test value: 2
Host strain YMC14/01/U318
  antibiotic susceptibility class: R
  antibiotic susceptibility test value: 32
Host strain YMC14/02/L18
  antibiotic susceptibility class: I
  antibiotic susceptibility test value: 16
Host strain YMC14/02/P47
  antibiotic susceptibility class: R
  antibiotic susceptibility test value: 32
Host strain YMC14/02/R1860
  antibiotic susceptibility class: I
  antibiotic susceptibility test value: 16
Host strain YMC14/02/R2417
  antibiotic susceptibility class: I
  antibiotic susceptibility test value: 16
Host strain YMC14/02/R2599
  antibiotic susceptibility class: R
  antibiotic susceptibility test value: 32
Host strain YMC14/02/R2668
  antibiotic susceptibility class: S
  antibiotic susceptibility test value: 8
Host strain YMC14/02/R2758
  antibiotic susceptibility class: S
  antibiotic susceptibility test value: 8
Host strain YMC14/02/R2781
  antibiotic susceptibility class: R
  antibiotic susceptibility test value: 32
Host strain YMC14/02/R3106
  antibiotic susceptibility class: S
  antibiotic susceptibility test value: 8
Host strain YMC14/02/R3419
  antibiotic susceptibility class: I
  antibiotic susceptibility test value: 16
Host strain YMC14/02/U1607
  antibiotic susceptibility class: I
  antibiotic susceptibility test value: 16
Host strain YMC14/03/L9
  antibiotic susceptibility class: I
  antibiotic susceptibility test value: 16
Host strain YMC14/03/P471
  antibiotic susceptibility class: S
  antibiotic susceptibility test value: 8
Host strain YMC14/03/R122
  antibiotic susceptibility class: R
  antibiotic susceptibility test value: 32
Host strain YMC14/03/R217
  antibiotic susceptibility class: I
  antibiotic susceptibility test value: 16
Host strain YMC14/03/R380
  antibiotic susceptibility class: S
  antibiotic susceptibility test value: 8
Host strain YMC14/03/R618
  antibiotic susceptibility class: S
  antibiotic susceptibility test value: 8
Host strain YMC14/03/R2144
  antibiotic susceptibility class: I
  antibiotic susceptibility test value: 16
Host strain YMC14/03/U4616
  antibiotic susceptibility class: I
  antibiotic susceptibility test value: 16
Host strain YMC14/04/R1078
  antibiotic susceptibility class: R
  antibiotic susceptibility test value: 32
Host strain YMC14/04/R1080
  antibiotic susceptibility class: S
  antibiotic susceptibility test value: 4
Host strain YMC14/06/R2359
  antibiotic susceptibility S/I/R: S
  antibiotic susceptibility value: 8
  susceptibility category (S/I/R): S
  susceptibility test value (number given before S/I/R): 8
Host strain YMC14/08/R1169
  antibiotic susceptibility value: 16
  susceptibility category (S/I/R): I
  susceptibility test value (number given before S/I/R): 16
Host strain YMC14/08/T90
  antibiotic susceptibility S/I/R: S
  antibiotic susceptibility value: 8
  susceptibility category (S/I/R): S
  susceptibility test value (number given before S/I/R): 8
Host strain YMC15/02/R436
  antibiotic susceptibility S/I/R: R
  antibiotic susceptibility value: 32
  susceptibility category (S/I/R): R
  susceptibility test value (number given before S/I/R): 32
Host strain YMC15/02/T28
  antibiotic susceptibility value: 16
  susceptibility category (S/I/R): I
  susceptibility test value (number given before S/I/R): 16
Host strain YMC15/03/R1604
  antibiotic susceptibility value: 16
  susceptibility category (S/I/R): I
  susceptibility test value (number given before S/I/R): 16
Host strain YMC15/09/R1869
  antibiotic susceptibility value: 16
  susceptibility category (S/I/R): I
  susceptibility test value (number given before S/I/R): 16
Host strain YMC16/01/P11
  antibiotic susceptibility S/I/R: R
  antibiotic susceptibility value: 32
  susceptibility category (S/I/R): R
  susceptibility test value (number given before S/I/R): 32
Host strain YMC16/01/R123
  antibiotic susceptibility S/I/R: R
